In ChEMBL document CHEMBL3044707, “Synthesis of some new glutamine linked 2,3-disubstituted quinazolinone derivatives as potent antimicrobial and antioxidant agents” (Med Chem Res, 2013) one finds zone of inhibition, MIC and IC50 data, which are given here for three compounds.

≈ marks a conversion by molar mass, not a printed value.

Holding throughout (assay type): functional
The subject of assay [1] is Aspergillus flavus. Briefly: Antimicrobial activity against Aspergillus flavus NCIM 524 assessed as diameter of growth inhibition zone at 100 ug/ml after 48 hr by paper disk diffusion method. The following applies: NCIM 524, 48 h, read-out: DIZ.
Assay [2] has as its system Bacillus subtilis. As to the kind of experiment: Antimicrobial activity against Bacillus subtilis NCIM 2999 assessed as diameter of growth inhibition zone at 100 ug/ml after 24 hr by paper disk diffusion method. As to conditions: NCIM 2999, 24 h, read-out: DIZ. A general note: In agar diffusion tests the substance spreads into inoculated agar from a disc or well.
The subject of assay [3] is Escherichia coli. As to the kind of experiment: Antimicrobial activity against Escherichia coli NCIM 2574 assessed as diameter of growth inhibition zone at 100 ug/ml after 24 hr by paper disk diffusion method. As to conditions: NCIM 2574, 24 h, read-out: DIZ.
Assay [4] concerns Pseudomonas aeruginosa. As to the kind of experiment: Antimicrobial activity against Pseudomonas aeruginosa NCIM 5029 assessed as diameter of growth inhibition zone at 100 ug/ml after 24 hr by paper disk diffusion method. As to conditions: NCIM 5029, 24 h, read-out: DIZ.
The subject of assay [5] is Staphylococcus aureus. Briefly: Antimicrobial activity against Staphylococcus aureus NCIM 5021 assessed as diameter of growth inhibition zone at 100 ug/ml after 24 hr by paper disk diffusion method. The following applies: NCIM 5021, 24 h, read-out: DIZ.
Assay [6] has as its system Candida albicans. Briefly: Antimicrobial activity against Candida albicans NCIM 3102 assessed as diameter of growth inhibition zone at 100 ug/ml after 48 hr by paper disk diffusion method. The following applies: NCIM 3102, 48 h, read-out: DIZ.
Assay [7] deals with Bacillus subtilis. As to the kind of experiment: Antimicrobial activity against Bacillus subtilis NCIM 2999 assessed as growth inhibition by agar streak dilution method.
The subject of assay [8] is Escherichia coli. As to the kind of experiment: Antimicrobial activity against Escherichia coli NCIM 2574 assessed as growth inhibition by agar streak dilution method.
The subject of assay [9] is Pseudomonas aeruginosa. As to the kind of experiment: Antimicrobial activity against Pseudomonas aeruginosa NCIM 5029 assessed as growth inhibition by agar streak dilution method.
For assay [10], the system named is Staphylococcus aureus. As to the kind of experiment: Antimicrobial activity against Staphylococcus aureus NCIM 5021 assessed as growth inhibition by agar streak dilution method.
A short description of assay [11]: Antioxidant activity assessed as inhibition of xanthine-xanthine oxidase generated superoxide anion radical-mediated NBT reduction by spectrophotometric analysis.
Assay [12] in a line: Antioxidant activity assessed as inhibition of NO radical production from sodium nitroprusside after 150 min by Griess reagent analysis. (In general: Griess reagent forms a coloured azo dye with nitrite.)
Assay [13] can be described thus: Antioxidant activity assessed as inhibition of Fe3+/ascorbic acid-induced hydroxyl radical production-mediated 2-deoxyribose degradation after 1 hr.
Assay [14] concerns Radical scavenging activity. As to the kind of experiment: Antioxidant activity assessed as DPPH radical scavenging activity by visible spectrophotometric analysis.
The test system of assay [15] is Aspergillus flavus. Briefly: Antimicrobial activity against Aspergillus flavus NCIM 524 assessed as growth inhibition by agar streak dilution method.
In assay [16] the test system is Candida albicans. As to the kind of experiment: Antimicrobial activity against Candida albicans NCIM 3102 assessed as growth inhibition by agar streak dilution method.
Assay [17] concerns Aspergillus flavus. Briefly: Antimicrobial activity against Aspergillus flavus NCIM 524 assessed as diameter of growth inhibition zone at 10 ug/disk after 48 hr by paper disk diffusion method. As to conditions: NCIM 524, 48 h, read-out: DIZ.
Assay [18] deals with Candida albicans. As to the kind of experiment: Antimicrobial activity against Candida albicans NCIM 3102 assessed as diameter of growth inhibition zone at 10 ug/disk after 48 hr by paper disk diffusion method. As to conditions: NCIM 3102, 48 h, read-out: DIZ.
The subject of assay [19] is Bacillus subtilis. Briefly: Antimicrobial activity against Bacillus subtilis NCIM 2999 assessed as diameter of growth inhibition zone at 10 ug/disk after 24 hr by paper disk diffusion method. As to conditions: NCIM 2999, 24 h, read-out: DIZ.
The subject of assay [20] is Escherichia coli. Briefly: Antimicrobial activity against Escherichia coli NCIM 2574 assessed as diameter of growth inhibition zone at 10 ug/disk after 24 hr by paper disk diffusion method. As to conditions: NCIM 2574, 24 h, read-out: DIZ.
Assay [21] concerns Pseudomonas aeruginosa. Briefly: Antimicrobial activity against Pseudomonas aeruginosa NCIM 5029 assessed as diameter of growth inhibition zone at 10 ug/disk after 24 hr by paper disk diffusion method. As to conditions: NCIM 5029, 24 h, read-out: DIZ.
Assay [22] deals with Staphylococcus aureus. As to the kind of experiment: Antimicrobial activity against Staphylococcus aureus NCIM 5021 assessed as diameter of growth inhibition zone at 10 ug/disk after 24 hr by paper disk diffusion method. The following applies: NCIM 5021, 24 h, read-out: DIZ.

The MIC is the lowest concentration found to suppress growth. As usually defined, the IC50 is the midpoint of a concentration-inhibition curve. Turning to `NC(CCC(=O)n1c(-c2ccc(Cl)cc2)nc2ccccc2c1=O)C(=O)O` (stereo not drawn), the zone of inhibition at 100 µg/mL amounted to 12.1 mm with Aspergillus flavus [1]; 12.7 mm with Bacillus subtilis [2]; 11.5 mm with Escherichia coli [3]; 12 mm in the assay with Pseudomonas aeruginosa [4]; 13 mm in the assay with Staphylococcus aureus [5]; 13.6 mm in the assay with Candida albicans [6]. Also, the MIC in the assay with Bacillus subtilis [7] came out at 11.2 µg/mL (≈ 29 µM); with Escherichia coli [8] it was 15 µg/mL (≈ 38.9 µM); with Pseudomonas aeruginosa [9] it was 15 µg/mL (≈ 38.9 µM); in the assay on Staphylococcus aureus [10], 10 µg/mL (≈ 25.9 µM); with Aspergillus flavus [15] it was 15 µg/mL (≈ 38.9 µM); in the assay on Candida albicans [16], 12 µg/mL (≈ 31.1 µM). Further, the IC50 in [11] was determined as 41.8 µg/mL (≈ 108 µM); in assay [12], 41.8 µg/mL (≈ 108 µM); in [13], 49 µg/mL (≈ 127 µM); in assay [14], 37.1 µg/mL (≈ 96.2 µM).

As for `OC(Cn1cncn1)(Cn1cncn1)c1ccc(F)cc1F` [FLUCONAZOLE], the values for the zone of inhibition at 10 µg/disc in the assay with Aspergillus flavus [17] and in the assay on Candida albicans [18] were 19 mm and 16 mm, respectively. For the same compound, the MIC in the assay with Aspergillus flavus [15] and with Candida albicans [16] was 5 µg/mL (≈ 16.3 µM) in each case.

For `CN[C@@H]1[C@H](O[C@H]2[C@H](O[C@H]3[C@H](O)[C@@H](O)[C@H](N=C(N)N)[C@@H](O)[C@@H]3N=C(N)N)O[C@@H](C)[C@]2(O)C=O)O[C@@H](CO)[C@H](O)[C@H]1O` [STREPTOMYCIN], the zone of inhibition at 10 µg/disc in the assay on Bacillus subtilis [19] was 13.4 mm; in the assay with Escherichia coli [20], 16.5 mm; with Pseudomonas aeruginosa [21] it was 14 mm; with Staphylococcus aureus [22], 14.1 mm. Further, the MIC in the assay with Bacillus subtilis [7], in the assay on Escherichia coli [8], in the assay with Pseudomonas aeruginosa [9] and in the assay on Staphylococcus aureus [10] was 5 µg/mL (≈ 8.6 µM) each time.
